What was measured:
[1] = test system: NCI-H522; test: NCI-60 anticancer screening (SRB); type: cell-based; details: Homo sapiens; NCI-H522, NSC lung cancer; one dose 10 μM; read-out: Growth Inhibition Percentage (GI %)
[2] = test system: UACC-62; test: NCI-60 anticancer screening (SRB); type: cell-based; details: Homo sapiens; UACC-62, melanoma; one dose 10 μM; read-out: Growth Inhibition Percentage (GI %)
[3] = test system: RPMI-8226; test: NCI-60 anticancer screening (SRB); type: cell-based; details: Homo sapiens; RPMI-8226, leukemia; one dose 10 μM; read-out: Growth Inhibition Percentage (GI %)
[4] = test system: DU-145; test: NCI-60 anticancer screening (SRB); type: cell-based; details: Homo sapiens; DU-145, prostate cancer; one dose 10 μM; read-out: Growth Inhibition Percentage (GI %)
[5] = test system: ACHN; test: NCI-60 anticancer screening (SRB); type: cell-based; details: Homo sapiens, renal cancer, one dose 10 μM, read-out: Growth Inhibition Percentage (GI %)
[6] = test system: SF-539; test: NCI-60 anticancer screening (SRB); type: cell-based; details: Homo sapiens; SF-539, CNS cancer; one dose 10 μM; read-out: Growth Inhibition Percentage (GI %)
[7] = test system: MALME-3M; test: NCI-60 anticancer screening (SRB); type: cell-based; details: Homo sapiens, melanoma, one dose 10 μM, read-out: Growth Inhibition Percentage (GI %)
[8] = test system: SK-MEL-28; test: NCI-60 anticancer screening (SRB); type: cell-based; details: Homo sapiens; SK-MEL-28, melanoma; one dose 10 μM; read-out: Growth Inhibition Percentage (GI %)
[9] = test system: CAKI-1; test: NCI-60 anticancer screening (SRB); type: cell-based; details: Homo sapiens; CAKI-1, renal cancer; one dose 10 μM; read-out: Growth Inhibition Percentage (GI %)
[10] = test system: UO-31; test: NCI-60 anticancer screening (SRB); type: cell-based; details: Homo sapiens; UO-31, renal cancer; one dose 10 μM; read-out: Growth Inhibition Percentage (GI %)
[11] = test system: HS 578T; test: NCI-60 anticancer screening (SRB); type: cell-based; details: Homo sapiens; HS 578T, breast cancer; one dose 10 μM; read-out: Growth Inhibition Percentage (GI %)
[12] = test system: A549/ATCC; test: NCI-60 anticancer screening (SRB); type: cell-based; details: Homo sapiens; A549/ATCC, NSC lung cancer; one dose 10 μM; read-out: Growth Inhibition Percentage (GI %)
[13] = test system: MDA-MB-435; test: NCI-60 anticancer screening (SRB); type: cell-based; details: Homo sapiens; MDA-MB-435, melanoma; one dose 10 μM; read-out: Growth Inhibition Percentage (GI %)
[14] = test system: SK-MEL-5; test: NCI-60 anticancer screening (SRB); type: cell-based; details: Homo sapiens; SK-MEL-5, melanoma; one dose 10 μM; read-out: Growth Inhibition Percentage (GI %)
[15] = test system: MOLT-4; test: NCI-60 anticancer screening (SRB); type: cell-based; details: Homo sapiens; MOLT-4, leukemia; one dose 10 μM; read-out: Growth Inhibition Percentage (GI %)
[16] = test system: OVCAR-4; test: NCI-60 anticancer screening (SRB); type: cell-based; details: Homo sapiens; OVCAR-4, ovarian cancer; one dose 10 μM; read-out: Growth Inhibition Percentage (GI %)
[17] = test system: HOP-62; test: NCI-60 anticancer screening (SRB); type: cell-based; details: Homo sapiens; HOP-62, NSC lung cancer; one dose 10 μM; read-out: Growth Inhibition Percentage (GI %)
[18] = test system: HT29; test: NCI-60 anticancer screening (SRB); type: cell-based; details: Homo sapiens, HT-29; HT29, colon cancer; one dose 10 μM; read-out: Growth Inhibition Percentage (GI %)
[19] = test system: NCI-H460; test: NCI-60 anticancer screening (SRB); type: cell-based; details: Homo sapiens; NCI-H460, NSC lung cancer; one dose 10 μM; read-out: Growth Inhibition Percentage (GI %)
[20] = test system: OVCAR-8; test: NCI-60 anticancer screening (SRB); type: cell-based; details: Homo sapiens; OVCAR-8, ovarian cancer; one dose 10 μM; read-out: Growth Inhibition Percentage (GI %)
[21] = test system: HOP-92; test: NCI-60 anticancer screening (SRB); type: cell-based; details: Homo sapiens; HOP-92, NSC lung cancer; one dose 10 μM; read-out: Growth Inhibition Percentage (GI %)
[22] = test system: SF-295; test: NCI-60 anticancer screening (SRB); type: cell-based; details: Homo sapiens; SF-295, CNS cancer; one dose 10 μM; read-out: Growth Inhibition Percentage (GI %)
[23] = test system: SNB-19; test: NCI-60 anticancer screening (SRB); type: cell-based; details: Homo sapiens; SNB-19, CNS cancer; one dose 10 μM; read-out: Growth Inhibition Percentage (GI %)
[24] = test system: SN 12C; test: NCI-60 anticancer screening (SRB); type: cell-based; details: Homo sapiens, SN12C; SN 12C, renal cancer; one dose 10 μM; read-out: Growth Inhibition Percentage (GI %)
[25] = test system: HCC-2998; test: NCI-60 anticancer screening (SRB); type: cell-based; details: Homo sapiens; HCC-2998, colon cancer; one dose 10 μM; read-out: Growth Inhibition Percentage (GI %)
[26] = test system: EKVX; test: NCI-60 anticancer screening (SRB); type: cell-based; details: Homo sapiens, NSC lung cancer, one dose 10 μM, read-out: Growth Inhibition Percentage (GI %)
[27] = test system: OVCAR-3; test: NCI-60 anticancer screening (SRB); type: cell-based; details: Homo sapiens; OVCAR-3, ovarian cancer; one dose 10 μM; read-out: Growth Inhibition Percentage (GI %)

Structure (SMILES)	inhibition at 10 µM [1] [%]	inhibition at 10 µM [2] [%]	inhibition at 10 µM [3] [%]	melting point [°C]	inhibition at 10 µM [4] [%]	inhibition at 10 µM [5] [%]	inhibition at 10 µM [6] [%]	inhibition at 10 µM [7] [%]	inhibition at 10 µM [8] [%]	inhibition at 10 µM [9] [%]	inhibition at 10 µM [10] [%]	inhibition at 10 µM [11] [%]	inhibition at 10 µM [12] [%]	inhibition at 10 µM [13] [%]	inhibition at 10 µM [14] [%]	inhibition at 10 µM [15] [%]	inhibition at 10 µM [16] [%]	inhibition at 10 µM [17] [%]	inhibition at 10 µM [18] [%]	inhibition at 10 µM [19] [%]	also measured
CCOC(=O)C1=C(N)N(c2ccc(C)cc2)C2=C(C(=O)CC(C)(C)C2)C1c1ccccn1 (racemic) [12b, (±)-Ethyl 2-amino-7,7-dimethyl-1–(4-methylphenyl)-5-oxo-1-phenyl-4-(pyrdin-2-yl)-1,4,5,6,7,8-hexahydroquinoline-3-carboxylate]	< 10	26	< 10	196 to 198	< 10	< 10	< 10	< 10	< 10	16	23	< 10	< 10	< 10	13	< 10	< 10	< 10	< 10	< 10	inhibition at 10 µM [20]: < 10%; inhibition at 10 µM [21]: < 10%; inhibition at 10 µM [22]: < 10%; inhibition at 10 µM [23]: < 10%; inhibition at 10 µM [24]: < 10%; inhibition at 10 µM [25]: < 10%; inhibition at 10 µM [26]: 19%; inhibition at 10 µM [27]: < 10%
CCOC(=O)C1=C(N)N(c2ccc(Cl)cc2)C2=C(C(=O)CC(C)(C)C2)C1c1ccccn1 (racemic) [12c, (±)-Ethyl 2-amino-1–(4-chlorophenyl)-7,7-dimethyl-5-oxo-4-(pyridine-2-yl)-1,4,5,6,7,8-hexahydroquinoline-3-carboxylate]	11	25	< 10	256 to 258	< 10	< 10	< 10	< 10	< 10	11	23	< 10	< 10	< 10	13	< 10	< 10	< 10	22	< 10	inhibition at 10 µM [20]: < 10%; inhibition at 10 µM [21]: < 10%; inhibition at 10 µM [22]: < 10%; inhibition at 10 µM [23]: < 10%; inhibition at 10 µM [24]: < 10%; inhibition at 10 µM [25]: < 10%; inhibition at 10 µM [26]: < 10%; inhibition at 10 µM [27]: < 10%
CCOC(=O)C1=C(N)N(c2ccccc2)C2=C(C(=O)CC(C)(C)C2)C1c1cccnc1 (racemic) [12d]	15	12	< 10	215 to 217	< 10	< 10	< 10	< 10	< 10	< 10	77	< 10	< 10	< 10	< 10	< 10	< 10	< 10	< 10	< 10	inhibition at 10 µM [20]: < 10%; inhibition at 10 µM [21]: < 10%; inhibition at 10 µM [22]: < 10%; inhibition at 10 µM [23]: < 10%; inhibition at 10 µM [24]: < 10%; inhibition at 10 µM [25]: < 10%; inhibition at 10 µM [26]: < 10%; inhibition at 10 µM [27]: < 10%
CCOC(=O)C1=C(N)N(c2ccc(C)cc2)C2=C(C(=O)CC(C)(C)C2)C1c1cccnc1 (racemic) [12e, (±)-Ethyl 2-amino-7,7-dimethyl-1–(4-methylphenyl)-5-oxo-1-phenyl-4-(pyrdin-3-yl)-1,4,5,6,7,8-hexahydroquinoline-3-carboxylate]	< 10	14	11	261 to 263	< 10	< 10	< 10	< 10	< 10	< 10	23	< 10	< 10	< 10	< 10	< 10	< 10	< 10	< 10	< 10	inhibition at 10 µM [20]: < 10%; inhibition at 10 µM [21]: < 10%; inhibition at 10 µM [22]: < 10%; inhibition at 10 µM [23]: < 10%; inhibition at 10 µM [24]: < 10%; inhibition at 10 µM [25]: < 10%; inhibition at 10 µM [26]: < 10%; inhibition at 10 µM [27]: < 10%

From PMC10408569, “Recruitment of hexahydroquinoline as anticancer scaffold targeting inhibition of wild and mutants EGFR (EGFR^WT, EGFR^T790M, and EGFR^L858R)” (Journal of Enzyme Inhibition and Medicinal Chemistry, 2023)
